#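 Values below derive from 48-hour exposures of cells grown in 96-well plates, with endpoints linearly interpolated between the two concentrations bracketing the appropriate inhibition level. The concentration for full growth arrest is given as TGI.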
# Tests used:
# Assay in all cases: NCI-60 cell line screen, 48 h
# LOX IMVI melanoma = test system: LOX IMVI melanoma
# UACC-62 melanoma = test system: UACC-62 melanoma
# ACHN renal = test system: ACHN renal
# A549 NSCLC = test system: A549 NSCLC
# SN12C renal = test system: SN12C renal
# DU-145 prostate = test system: DU-145 prostate
# UACC-257 melanoma = test system: UACC-257 melanoma
# K-562 leukemia = test system: K-562 leukemia
# NCI-H226 lung = test system: NCI-H226 lung
# TK-10 renal = test system: TK-10 renal
# NCI-H460 lung = test system: NCI-H460 lung
# IGROV1 ovarian = test system: IGROV1 ovarian
# OVCAR-3 ovarian = test system: OVCAR-3 ovarian
# SW-620 colon = test system: SW-620 colon
# SNB-19 CNS = test system: SNB-19 CNS
# NCI/ADR-RES ovarian = test system: NCI/ADR-RES ovarian
# MDA-MB-435 = test system: MDA-MB-435
# HOP-62 NSCLC = test system: HOP-62 NSCLC
# SF-268 CNS = test system: SF-268 CNS
# SK-MEL-5 melanoma = test system: SK-MEL-5 melanoma
# PC-3 prostate = test system: PC-3 prostate
# HCT-116 colon = test system: HCT-116 colon
# OVCAR-5 ovarian = test system: OVCAR-5 ovarian
# HOP-92 NSCLC = test system: HOP-92 NSCLC
# SNB-75 CNS = test system: SNB-75 CNS
# 786-0 renal = test system: 786-0 renal
# T-47D breast = test system: T-47D breast
# HCC-2998 colon = test system: HCC-2998 colon
# RXF 393 renal = test system: RXF 393 renal
# SK-MEL-2 melanoma = test system: SK-MEL-2 melanoma
# MDA-MB-231 breast = test system: MDA-MB-231 breast
# NCI-H23 lung = test system: NCI-H23 lung
# SK-OV-3 ovarian = test system: SK-OV-3 ovarian
# CAKI-1 renal = test system: CAKI-1 renal
# COLO 205 colon = test system: COLO 205 colon
# M14 melanoma = test system: M14 melanoma
# EKVX NSCLC = test system: EKVX NSCLC
# UO-31 renal = test system: UO-31 renal
# OVCAR-8 ovarian = test system: OVCAR-8 ovarian
# MDA-N = test system: MDA-N
# OVCAR-4 ovarian = test system: OVCAR-4 ovarian
# SF-539 CNS = test system: SF-539 CNS
# U251 CNS = test system: U251 CNS
# HL-60(TB) leukemia = test system: HL-60(TB) leukemia
# SK-MEL-28 melanoma = test system: SK-MEL-28 melanoma
# MOLT-4 leukemia = test system: MOLT-4 leukemia
# SR leukemia = test system: SR leukemia
# HCT-15 colon = test system: HCT-15 colon
# KM12 colon = test system: KM12 colon
# SF-295 CNS = test system: SF-295 CNS
# HS 578T breast = test system: HS 578T breast
# CCRF-CEM leukemia = test system: CCRF-CEM leukemia
# MCF7 breast = test system: MCF7 breast
# HT29 colon = test system: HT29 colon
# MALME-3M melanoma = test system: MALME-3M melanoma
# RPMI-8226 leukemia = test system: RPMI-8226 leukemia
# NCI-H522 lung = test system: NCI-H522 lung
# BT-549 breast = test system: BT-549 breast
# A498 renal = test system: A498 renal
structure (smiles),measurement,setting,value
CC1(C)N=C(C(=O)c2ccccc2)N(O)C1(O)c1ccccc1 (stereo not drawn),TGI,LOX IMVI melanoma,> 100 µM
same,TGI,UACC-62 melanoma,> 100 µM
same,TGI,ACHN renal,> 100 µM
same,TGI,A549 NSCLC,> 100 µM
same,TGI,SN12C renal,> 100 µM
same,TGI,DU-145 prostate,> 100 µM
same,TGI,UACC-257 melanoma,> 100 µM
same,TGI,K-562 leukemia,> 100 µM
same,TGI,NCI-H226 lung,> 100 µM
same,TGI,TK-10 renal,> 100 µM
same,TGI,NCI-H460 lung,> 100 µM
same,TGI,IGROV1 ovarian,> 100 µM
same,TGI,OVCAR-3 ovarian,> 100 µM
same,TGI,SW-620 colon,> 100 µM
same,TGI,SNB-19 CNS,> 100 µM
same,TGI,NCI/ADR-RES ovarian,> 100 µM
same,TGI,MDA-MB-435,> 100 µM
same,TGI,HOP-62 NSCLC,> 100 µM
same,TGI,SF-268 CNS,> 100 µM
same,TGI,SK-MEL-5 melanoma,> 100 µM
same,TGI,PC-3 prostate,> 100 µM
same,TGI,HCT-116 colon,> 100 µM
same,TGI,OVCAR-5 ovarian,> 100 µM
same,TGI,HOP-92 NSCLC,> 100 µM
same,TGI,SNB-75 CNS,> 100 µM
same,TGI,786-0 renal,> 100 µM
same,TGI,T-47D breast,> 100 µM
same,TGI,HCC-2998 colon,> 100 µM
same,TGI,RXF 393 renal,> 100 µM
same,TGI,SK-MEL-2 melanoma,> 100 µM
same,TGI,MDA-MB-231 breast,> 100 µM
same,TGI,NCI-H23 lung,> 100 µM
same,TGI,SK-OV-3 ovarian,> 100 µM
same,TGI,CAKI-1 renal,> 100 µM
same,TGI,COLO 205 colon,> 100 µM
same,TGI,M14 melanoma,> 100 µM
same,TGI,EKVX NSCLC,> 100 µM
same,TGI,UO-31 renal,> 100 µM
same,TGI,OVCAR-8 ovarian,> 100 µM
same,TGI,MDA-N,> 100 µM
same,TGI,OVCAR-4 ovarian,> 100 µM
same,TGI,SF-539 CNS,> 100 µM
same,TGI,U251 CNS,> 100 µM
same,TGI,HL-60(TB) leukemia,> 100 µM
same,TGI,SK-MEL-28 melanoma,> 100 µM
same,TGI,MOLT-4 leukemia,> 100 µM
same,TGI,SR leukemia,> 100 µM
same,TGI,HCT-15 colon,> 100 µM
same,TGI,KM12 colon,> 100 µM
same,TGI,SF-295 CNS,> 100 µM
same,TGI,HS 578T breast,> 100 µM
same,TGI,CCRF-CEM leukemia,> 100 µM
same,TGI,MCF7 breast,> 100 µM
same,TGI,HT29 colon,> 100 µM
same,TGI,MALME-3M melanoma,> 100 µM
same,TGI,RPMI-8226 leukemia,> 100 µM
O=C1CCCCC(=O)Nc2ccccc2N1,TGI,LOX IMVI melanoma,> 100 µM
same,TGI,UACC-62 melanoma,> 100 µM
same,TGI,ACHN renal,> 100 µM
same,TGI,A549 NSCLC,> 100 µM
same,TGI,SN12C renal,> 100 µM
same,TGI,DU-145 prostate,> 100 µM
same,TGI,UACC-257 melanoma,> 100 µM
same,TGI,K-562 leukemia,> 100 µM
same,TGI,NCI-H226 lung,> 100 µM
same,TGI,TK-10 renal,> 100 µM
same,TGI,NCI-H460 lung,> 100 µM
same,TGI,IGROV1 ovarian,> 100 µM
same,TGI,OVCAR-3 ovarian,> 100 µM
same,TGI,SW-620 colon,> 100 µM
same,TGI,SNB-19 CNS,> 100 µM
same,TGI,NCI/ADR-RES ovarian,> 100 µM
same,TGI,MDA-MB-435,> 100 µM
same,TGI,HOP-62 NSCLC,> 100 µM
same,TGI,SF-268 CNS,> 100 µM
same,TGI,SK-MEL-5 melanoma,> 100 µM
same,TGI,PC-3 prostate,> 100 µM
same,TGI,NCI-H522 lung,> 100 µM
same,TGI,HCT-116 colon,> 100 µM
same,TGI,OVCAR-5 ovarian,> 100 µM
same,TGI,BT-549 breast,> 100 µM
same,TGI,HOP-92 NSCLC,> 100 µM
same,TGI,A498 renal,> 100 µM
same,TGI,786-0 renal,> 100 µM
same,TGI,T-47D breast,> 100 µM
same,TGI,RXF 393 renal,> 100 µM
same,TGI,SK-MEL-2 melanoma,> 100 µM
same,TGI,MDA-MB-231 breast,> 100 µM
same,TGI,NCI-H23 lung,> 100 µM
same,TGI,SK-OV-3 ovarian,> 100 µM
same,TGI,CAKI-1 renal,> 100 µM
same,TGI,COLO 205 colon,> 100 µM
same,TGI,M14 melanoma,> 100 µM
same,TGI,EKVX NSCLC,> 100 µM
same,TGI,UO-31 renal,> 100 µM
same,TGI,OVCAR-8 ovarian,> 100 µM
same,TGI,MDA-N,> 100 µM
same,TGI,OVCAR-4 ovarian,> 100 µM
same,TGI,SF-539 CNS,> 100 µM
same,TGI,U251 CNS,> 100 µM
same,TGI,HL-60(TB) leukemia,> 100 µM
same,TGI,SK-MEL-28 melanoma,> 100 µM
same,TGI,MOLT-4 leukemia,> 100 µM
same,TGI,SR leukemia,> 100 µM
same,TGI,HCT-15 colon,> 100 µM
same,TGI,KM12 colon,> 100 µM
same,TGI,SF-295 CNS,> 100 µM
same,TGI,HS 578T breast,> 100 µM
same,TGI,CCRF-CEM leukemia,> 100 µM
same,TGI,HT29 colon,> 100 µM
same,TGI,MALME-3M melanoma,> 100 µM
same,TGI,RPMI-8226 leukemia,> 100 µM
CC(=O)c1ccc2c(c1)N(CCCN1CCN(CCO)CC1)c1ccccc1C2,TGI,LOX IMVI melanoma,29.6 µM
same,TGI,UACC-62 melanoma,23 µM
same,TGI,ACHN renal,34.8 µM
same,TGI,A549 NSCLC,33.3 µM
same,TGI,SN12C renal,31.2 µM
same,TGI,DU-145 prostate,28 µM
same,TGI,UACC-257 melanoma,18.9 µM
same,TGI,K-562 leukemia,30.1 µM
same,TGI,NCI-H226 lung,30.9 µM
same,TGI,TK-10 renal,29.1 µM
same,TGI,NCI-H460 lung,31 µM
same,TGI,IGROV1 ovarian,31.3 µM
same,TGI,OVCAR-3 ovarian,29.5 µM
same,TGI,SW-620 colon,31.3 µM
same,TGI,SNB-19 CNS,33.8 µM
same,TGI,NCI/ADR-RES ovarian,27.7 µM
same,TGI,MDA-MB-435,21.7 µM
same,TGI,HOP-62 NSCLC,30.3 µM
same,TGI,SF-268 CNS,33.2 µM
same,TGI,SK-MEL-5 melanoma,25.6 µM
same,TGI,PC-3 prostate,27.8 µM
same,TGI,NCI-H522 lung,31.2 µM
same,TGI,HCT-116 colon,30.5 µM
same,TGI,OVCAR-5 ovarian,32.1 µM
same,TGI,BT-549 breast,28.1 µM
same,TGI,HOP-92 NSCLC,27.4 µM
same,TGI,A498 renal,30.1 µM
same,TGI,SNB-75 CNS,30.5 µM
same,TGI,786-0 renal,31.5 µM
same,TGI,T-47D breast,25.9 µM
same,TGI,RXF 393 renal,32.6 µM
same,TGI,SK-MEL-2 melanoma,33.5 µM
same,TGI,MDA-MB-231 breast,26.7 µM
same,TGI,NCI-H23 lung,30.1 µM
same,TGI,SK-OV-3 ovarian,30.5 µM
same,TGI,CAKI-1 renal,26.9 µM
same,TGI,COLO 205 colon,31.8 µM
same,TGI,M14 melanoma,28.3 µM
same,TGI,EKVX NSCLC,33.6 µM
same,TGI,UO-31 renal,38.9 µM
same,TGI,OVCAR-8 ovarian,30.7 µM
same,TGI,MDA-N,26.7 µM
same,TGI,OVCAR-4 ovarian,30.2 µM
same,TGI,SF-539 CNS,33.1 µM
same,TGI,U251 CNS,29.8 µM
same,TGI,HL-60(TB) leukemia,29.2 µM
same,TGI,SK-MEL-28 melanoma,23.8 µM
same,TGI,MOLT-4 leukemia,35.2 µM
same,TGI,HCT-15 colon,28.8 µM
same,TGI,KM12 colon,31.1 µM
same,TGI,SF-295 CNS,31.8 µM
same,TGI,HS 578T breast,31.2 µM
same,TGI,CCRF-CEM leukemia,28.2 µM
same,TGI,HT29 colon,22.4 µM
same,TGI,MALME-3M melanoma,33 µM
same,TGI,RPMI-8226 leukemia,30.1 µM
